Patent publication US20130022590A1, “Compositions Comprising Zinc Finger Domains and Uses Therefor” (priority 2009, published 2013)

Assays:
[1] = tested on: short (6 or 10 nt) RNA oligonucleotides containing a single AGGUAA motif; assay: NMR chemical-shift perturbation (15N-HSQC) RNA titration; type: binding; conditions: 15N-labeled F2
Procedure: In brief, F2 and F12 were dialysed into 25 mM potassium phosphate (pH 7.0), 25 mM NaCl, and 0.5 mM DTT and concentrated to 0.4-1 mM. All spectra were recorded on a Bruker Avance 600 spectrometer equipped with a cryoprobe. 1H, 15N, and 13C assignments were obtained from HNCACB, CB-CA(CO)NH, HCCH-TOCSY, NOESY, and TOCSY spectra acquired at 2° C., 5° C., or 25° C. Dihedral angle restraints were obtained by analysis of an HNHA spectrum as previously described in Vuister G. W. and Bax A. 1993 J Am Chem Soc 115: 7772-7777. NMR data were processed by using XWINNMR/Topspin (Bruker) and analyzed with SPARKY (T. D. Goddard and D. G. Kneller, University of California, San Francisco). The structure of F2 was calculated from NOE and Ø angle constraints (e.g., FIGS. 5 and 9C) by using a protocol as described in Plambeck C. A., et al., 2003 J Biol Chem 278: 22805-22811.
For RNA titrations, deprotected RNA oligonucleotides i.e., having the sequence AGGUAA, CCAGGUAAAG (SEQ ID NO: 25), or AGGUAAAGGUAA (SEQ ID NO: 26) and the appropriate protein were dialyzed into 10 mM Mops (pH 7.2) and 0.5 mM DTT. Protein and RNA concentrations were calculated from A280 and A260, respectively. Final concentrations of complexes after titrations were typically approximately 0.1-0.5 mM. Assignments of the F2:RNA complex (1:1 or 1:1.2 molar ratio) were made at 25° C. as described above. […]

[2] = tested on: AGAUAA ssRNA; assay: Fluorescence anisotropy binding assay, AGAUAA substrate; conditions: FIG. 19 and FIG. 20
Procedure: (§1) Fluorescence Anisotropy titrations e.g., as shown in FIGS. 1D-F, 8 and 35, were carried out using standard protocols. In brief, 5′-Fluorescein-labeled RNA oligonucleotides were quantified by A260, correcting for fluorescein absorbance by using A493. For single-site experiments, the sequence GCAACCAGGUAAAGUCU (SEQ ID NO: 28), or single base mutants thereof, was used. For double-site experiments, two AGGUAA sites were separated by different length sequences as indicated, and the total oligonucleotide lengths were kept constant by the symmetrical addition of adenines to each end. […] Protein was titrated into this starting solution and anisotropy values measured on a Cary Eclipse fluorescence spectrophotometer fitted with manual polarizer and long-pass filters set to 475 and 515 nm for excitation and emission, respectively. […] Association constants were determined by nonlinear least squares regression analysis using a 1:1 binding model.
To determine whether changing arginine-82 (R82) would affect the binding preference of ZRANB2-F2 from GGU to GAU, the point mutation R82Q in ZNF 2 of ZRANB2 was made and the ability of both the wild type (W) protein and the R82Q mutant to bind to AGGUAA and AGAUAA was assessed by fluorescence anisotropy binding assays as described previously in Example 1.

[3] = tested on: ssRNA oligonucleotide containing a single AGGUAA site (GCAACCAGGUAAAGUCU, SEQ ID NO: 28); assay: Fluorescence anisotropy titration, single-site ssRNA; type: binding; conditions: GST fusions; ssRNA with 5′ fluorescein tag and a single AGGUAA site; 25° C.
Procedure: as §1
Constructs of the two individual domains, F1 (FIG. 2, residues 1-45) and F2 (FIG. 2, residues 65-95), were cloned expressed and purified as GST fusions described in section 1.2 above, and tested their ability to bind ssRNA by fluorescence anisotropy as described in section 1.5 above, using a ssRNA oligonucleotide bearing a 5′ fluorescein tag and containing a single AGGUAA site.

With “F2: F2 zinc finger domain (residues 65-95 of human ZRANB2), wild type (SANDWQCKTCSNVNWARRSECNMCNTPKYAK; F2 zinc finger domain GST fusion in some uses; UniProt O95218 65-95, looked up, fragment)” the “complex formed on RNA titration” value [1] was “well-defined 1:1 complex”, the “binding affinity to guanine base relative to adenine base at position 3 (AGGUAA vs AGAUAA)” value [2] was “about 4 fold” and the association constant [3] was 1e+06 M⁻¹.

In the case of “F1: F1 zinc finger domain (residues 1-45 of human ZRANB2) (MSTKNFRVSDGDWICPDKKCGNVNFARRTSCNRCGREKTTEAKMM; F1 zinc finger domain GST fusion in some uses; UniProt O95218 1-45, looked up, fragment)”, the association constant [3] is reported as 3e+06 M⁻¹.
